# In US8211945B2, “Carba-sugar amine derivative and glycolipid metabolic disorder treating agent containing the same as active ingredient” (Seikagaku Corporation, priority 2001, dated 2012):
# Numbering of substitutions follows the chain as printed.
# Tests used:
# Assay in all cases: Mutant β-galactosidase activity in model cells, 4 days culture
# Assay type in all cases: cell-based
# [1] = target: T1, human mutant β-galactosidase Y83H (Homo sapiens, UniProt P16278, Y83H)
# T1 construct: expressed in transfected cells; host or cells: SV40-immortalized skin fibroblasts of a β-galactosidase-deficient knockout mouse
# T1 sequence (P16278 29-677 Y83H): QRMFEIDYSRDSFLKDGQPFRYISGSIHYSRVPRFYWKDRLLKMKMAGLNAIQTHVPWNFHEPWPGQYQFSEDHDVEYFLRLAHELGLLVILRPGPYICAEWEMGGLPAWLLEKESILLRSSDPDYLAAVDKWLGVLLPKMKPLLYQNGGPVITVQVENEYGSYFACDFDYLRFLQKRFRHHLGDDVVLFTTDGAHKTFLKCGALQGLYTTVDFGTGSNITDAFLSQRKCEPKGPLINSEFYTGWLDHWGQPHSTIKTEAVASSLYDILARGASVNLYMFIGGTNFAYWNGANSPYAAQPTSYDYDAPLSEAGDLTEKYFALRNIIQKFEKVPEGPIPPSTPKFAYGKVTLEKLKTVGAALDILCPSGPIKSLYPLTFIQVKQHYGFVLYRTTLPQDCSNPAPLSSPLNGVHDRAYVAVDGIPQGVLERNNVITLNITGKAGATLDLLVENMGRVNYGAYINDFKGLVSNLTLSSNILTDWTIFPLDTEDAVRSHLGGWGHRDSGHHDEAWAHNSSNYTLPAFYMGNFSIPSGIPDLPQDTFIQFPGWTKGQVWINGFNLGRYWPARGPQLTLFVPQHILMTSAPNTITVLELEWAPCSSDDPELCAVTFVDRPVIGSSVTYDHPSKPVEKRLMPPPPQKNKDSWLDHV
# Excerpt: (§1) Cultured skin fibroblasts of a β-galactosidase-deficient knockout mouse was immortalized by introducing an SV40 viral gene, and enzyme genes integrated into pSV2neo and an expression vector were also introduced simultaneously, thereby establishing a model cell (Brain Dev., 23(5), 284-287, 2001). The genes used are human normal (GP8) and mutant β-galactosidase gene Y316C, G123R (infantile GM1-gangliosidosis), R201C (juvenile GM1-gangliosidosis), 151T, T82M, R201H, R263S, R457Q (adult GM1-gangliosidosis), W273L, Y83H, R482H and R482C (Morquio-B disease) (Hum. Genet., 93(2), 109-114, 1994).
# (§2) As a control substance, 0.5 mM N-(n-butyl)-deoxygalactonojirimycin (NB-DGJ: The Journal of Biological Chemistry, 269, 27108-27114 (1994)) was used, and the substance 18 of the present invention was used in an amount of 0.2 μM.
# (§3) Specifically, after culturing the model cell for 4 days using a cell culture medium (10% FCS DMEM) containing the substance 18 of the present invention, the resulting cells were recovered and diluted such that the amount of protein in the suspension became a predetermined level, and then enzyme activity in the diluted suspension was measured. Using 4-methylumbelliferyl-β-D-galactopyranoside as the fluorescent substrate, the enzyme activity during 30 minutes was measured at 37° C.
# [2] = target: T2, human mutant β-galactosidase R482H (Homo sapiens, UniProt P16278, R482H)
# T2 construct: expressed in transfected cells; host or cells: SV40-immortalized skin fibroblasts of a β-galactosidase-deficient knockout mouse
# T2 sequence (P16278 29-677 R482H): T1 sequence (P16278 29-677 Y83H) with H55Y, R454H
# Excerpt: as §1, §2, §3
# [3] = target: T3, human mutant β-galactosidase R201H (Homo sapiens, UniProt P16278, R201H)
# T3 construct: expressed in transfected cells; host or cells: SV40-immortalized skin fibroblasts of a β-galactosidase-deficient knockout mouse
# T3 sequence (P16278 29-677 R201H): T1 sequence (P16278 29-677 Y83H) with H55Y, R173H
# Excerpt: as §1, §2, §3
Compound,"enzyme activity, Control ([1]; transferred gene Y83H, control substance 0.5 mM NB-DGJ)","enzyme activity, Control ([2]; transferred gene R482H, control substance 0.5 mM NB-DGJ)","enzyme activity, Control ([3]; transferred gene R201H, control substance 0.5 mM NB-DGJ)","enzyme activity increased in comparison with the control ([1]; Y83H, 0.2 μM) [%]","Relative ratio (×100%) ([1]; Y83H, substance 18 vs control)","enzyme activity ([1]; transferred gene Y83H, 0.2 μM, 4 days)","Relative ratio (×100%) ([2]; R482H, substance 18 vs control)","enzyme activity ([2]; transferred gene R482H, 0.2 μM, 4 days)","enzyme activity increased in comparison with the control ([3]; R201H, 0.2 μM) [%]","Relative ratio (×100%) ([3]; R201H, substance 18 vs control)","enzyme activity ([3]; transferred gene R201H, 0.2 μM, 4 days)"
"CCCCN1C[C@H](O)[C@@H](O)[C@@H](O)[C@H]1CO [Control, N-(n-butyl)-deoxygalactonojirimycin, reference compound]",8.89,0.50,19.28,,,,,,,,
"CCCCCCCCN[C@@H]1C=C(CO)[C@H](O)C(O)[C@@H]1O (stereo partly drawn) [Substance 18, N-octyl-5a-carba-α-L-arabino-hexo-5(5a)-enopyranosylamine]",,,,≥ 150,2.27 ×100%,20.16,2.50 ×100%,1.24,≥ 150,4.46 ×100%,86.05
